Experimental findings from patent US12583854B2, “KRAS G12C inhibitors and methods of using the same” (Amgen Inc., priority 2018, dated 2026) are described below.

pIC50: −log10 of the molar value. Like-named read-outs stand apart in the source and are kept apart here.

The target in test [1] is GDP-bound KRAS protein (aa 1-169), containing both G12C and C118A amino acid substitutions (Homo sapiens, UniProt P01116, C118A/G12C). Kind of test: Coupled Nucleotide Exchange Assay. The test is classed as biochemical. Conditions: 5 min compound pre-incubation; SOS-mediated nucleotide exchange, AlphaScreen. The protocol: Following compound pre-incubation, purified SOS protein (aa 564-1049) and GTP (Roche 10106399001) were added to the assay wells and incubated for an additional 30 min. To determine the extent of inhibition of SOS-mediated nucleotide exchange, purified GST-tagged cRAF (aa 1-149), nickel chelate AlphaLISA acceptor beads (PerkinElmer AL108R), and AlphaScreen glutathione donor beads (PerkinElmer 6765302) were added to the assay wells and incubated for 10 minutes. The assay plates were then read on a PerkinElmer EnVision Multilabel Reader, using AlphaScreen® technology, and data were analyzed using a 4-parameter logistic model to calculate IC50 values.
(In general: In Alpha technology, singlet oxygen from a donor bead excites a nearby acceptor bead.)

For test [2], the system named is Phosphorylation of ERK1/2 in MIA PaCa-2 cells. Briefly: Phospho-ERK1/2 MSD Assay. The test is classed as cell-based. The conditions noted are these: EGF stimulation 10 ng/mL, 10 min, read-out: p-ERK IC50 (2 h). As for the experimental part:
Phospho-ERK1/2 MSD Assay: MIA PaCa-2 (ATCC® CRL-1420™) and A549 (ATCC® CCL-185™) cells were cultured in RPMI 1640 Medium (ThermoFisher Scientific 11875093) containing 10% fetal bovine serum (ThermoFisher Scientific 16000044) and 1× penicillin-streptomycin-glutamine (ThermoFisher Scientific 10378016). Sixteen hours prior to compound treatment, MIA PaCa-2 were seeded in 96-well cell culture plates at a density of 25,000 cells/well and incubated at 37° C., 5% CO2. A compound dose-response titration was diluted in growth media, added to appropriate wells of a cell culture plate, and then incubated at 37° C., 5% CO2 for 2 (see Table 10). Following compound treatment, cells were stimulated with 10 ng/mL EGF (Roche 11376454001) for 10 min, washed with ice-cold Dulbecco's phosphate-buffered saline, no Ca^2+ or Mg^2+ (ThermoFisher Scientific 14190144), and then lysed in RIPA buffer (50 mM Tris-HCl pH 7.5, 1% Igepal, 0.5% sodium deoxycholate, 150 mM NaCl, and 0.5% sodium dodecyl sulfate) containing protease inhibitors (Roche 4693132001) and phosphatase inhibitors (Roche 4906837001). Phosphorylation of ERK1/2 in compound-treated lysates was assayed using Phospho-ERK1/2 Whole Cell Lysate kits (Meso Scale Discovery K151DWD) according to the manufacturer's protocol. Assay plates were read on a Meso Scale Discovery Sector Imager 6000, and data were analyzed using a 4-parameter logistic model to calculate IC50 values.

Where [3] appears, read: Homo sapiens, MIA PaCa-2, 2 h compound treatment.

Sequence of GDP-bound KRAS protein (aa 1-169), containing both G12C and C118A amino acid substitutions (P01116 1-169 isoform P01116-2 G12C/C118A): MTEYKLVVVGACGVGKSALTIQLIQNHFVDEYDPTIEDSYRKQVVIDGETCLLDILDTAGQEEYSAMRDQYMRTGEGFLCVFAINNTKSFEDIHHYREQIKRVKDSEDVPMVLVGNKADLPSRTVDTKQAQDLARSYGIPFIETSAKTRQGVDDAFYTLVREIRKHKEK

Broadly, the pIC50 is the IC50 on a negative log10 scale, so that one unit is a factor of ten. For `C=CC(=O)N1CCN(c2c(C#N)c(=O)n(-c3c(C(C)C)ccnc3N(C)C)c3nc(-c4ccccc4F)c(Cl)cc23)CC1` (single isomer, unassigned) [Example 8.8, 4-(4-acryloylpiperazin-1-yl)-6-chloro-1-(2-(dimethylamino)-4-isopropylpyridin-3-yl)-7-(2-fluorophenyl)-2-oxo-1,2-dihydro-1,8-naphthyridine-3-carbonitrile], the “Coupled exchange IC50 (5 min; μM)” value in test [1] is 0.09 µM. The pIC50 in test [2] (2 h compound treatment) is 7.30.
For `C=CC(=O)N1[C@H](C)CN(c2c(C#N)c(=O)n(-c3c(C)ccnc3C(C)C)c3nc(-c4ccccc4F)c(Cl)cc23)C[C@@H]1C` (single isomer, unassigned) [Example 7.7], the “Coupled exchange IC50 (5 min; μM)” value in test [1] stood at 0.18 µM. Also, the pIC50 in test [2] (setting [3]) is 6.59.
On the same counts, the results for `CC(C)c1ncnc(C(C)C)c1-n1c(=O)c(C#N)c(N2CCN(C(=O)/C=C/C3CCCN3C)CC2)c2cc(Cl)c(-c3ccccc3F)nc21` (stereo not shown) [Example 3.2] are 0.71 µM and 5.90.
Regarding `C=CC(=O)N1CCN(c2c(C#N)c(=O)n(-c3c(C(C)C)ccnc3N(C)C)c3nc(-c4ccccc4F)c(Cl)cc23)CC1` (single isomer, unassigned) [Example 8.4, 4-(4-acryloylpiperazin-1-yl)-6-chloro-1-(2-(dimethylamino)-4-isopropylpyridin-3-yl)-7-(2-fluorophenyl)-2-oxo-1,2-dihydro-1,8-naphthyridine-3-carbonitrile], the “Coupled exchange IC50 (5 min; μM)” value in test [1] was determined as 0.24 µM. Moreover, the pIC50 in test [2] (2 h compound treatment) is 6.62.
For `C=CC(=O)N1CCN(c2c(C#N)c(=O)n(-c3c(C(C)C)ccnc3C(C)C)c3nc(-c4ccccc4F)c(Cl)cc23)CC1` (single isomer, unassigned) [Example 8.2, 4-(4-acryloylpiperazin-1-yl)-6-chloro-1-(2,4-diisopropylpyridin-3-yl)-7-(2-fluorophenyl)-2-oxo-1,2-dihydro-1,8-naphthyridine-3-carbonitrile], in that order: 0.12 µM and 6.80.
Regarding `C=CC(=O)N1CCN(c2c(C#N)c(=O)n(-c3c(C(C)C)ncnc3C(C)C)c3nc(-c4ccccc4F)c(Cl)cc23)CC1` [Example 6.3, 4-(4-acryloylpiperazin-1-yl)-6-chloro-1-(4,6-diisopropylpyrimidin-5-yl)-7-(2-fluorophenyl)-2-oxo-1,2-dihydro-1,8-naphthyridine-3-carbonitrile], the “Coupled exchange IC50 (5 min; μM)” value in test [1] amounted to 0.07 µM. Moreover, in test [2] (setting [3]), the pIC50 is 7.40.
For `CC(C)c1ncnc(C(C)C)c1-n1c(=O)c(C#N)c(N2CCN(C(=O)/C=C/CNC3CC3)CC2)c2cc(Cl)c(-c3ccccc3F)nc21` [Example 5, (E)-6-Chloro-4-(4-(4-(cyclopropylamino)but-2-enoyl)piperazin-1-yl)-1-(4,6-diisopropylpyrimidin-5-yl)-7-(2-fluorophenyl)-2-oxo-1,2-dihydro-1,8-naphthyridine-3-carbonitrile], in that order: 0.70 µM and 6.12.
Take `C=CC(=O)N1CCN(c2c(C#N)c(=O)n(-c3c(C(C)C)ccnc3C(C)C)c3nc(-c4ccccc4C)c(Cl)cc23)CC1` (single isomer, unassigned) [Example 7, 4-(4-Acryloylpiperazin-1-yl)-6-chloro-1-(2,4-diisopropylpyridin-3-yl)-2-oxo-7-(o-tolyl)-1,2-dihydro-1,8-naphthyridine-3-carbonitrile]: the “Coupled exchange IC50 (5 min; μM)” value in test [1] came out at 0.15 µM. The pIC50 in test [2] (setting [3]) is 6.66.
